These are literature values, as cited in PMC2410273, “Pharmacokinetic behaviour of the chemoprotectants BNP7787 and mesna after an i.v. bolus injection in rats” (British Journal of Cancer, 2004).

Where two headings read alike, the source gives them in different places.

Details of this data set: method as in Ormstad et al, 1983. To be noted: in vitro, ref Ormstad et al, 1983, cited from earlier work.

Turning to `O=S(=O)([O-])CCSSCCS(=O)(=O)[O-].[Na+].[Na+]` [BNP7787, disodium 2,2′-dithio-bis-ethane sulphonate], the “reduction of BNP7787 into mesna” value reads like this: (cytosol fraction of the kidney cortex) “large reduction”; (plasma) “very limited”.
